{"source": "patent US20250241914A1", "about": "“BIFUNCTIONAL PHARMACEUTICAL COMPOUNDS” (DE MONTFORT UNIVERSITY, priority 2024, published 2025)", "key": {"[1]": {"tested_on": "M. tuberculosis rifampicin-resistant strain RpoBS531L", "format": "cell-based, Mycobacterium tuberculosis"}, "[2]": {"tested_on": "M. tuberculosis rifampicin resistant strain RpoBS522L (H37Rv)", "format": "cell-based, Mycobacterium tuberculosis"}}}
{"compound": "CO[C@H]1/C=C/O[C@@]2(C)Oc3c(C)c(O)c4c(O)c(c(CNCCCn5cc(CCn6cc(F)c(=O)[nH]c6=O)nn5)c(O)c4c3C2=O)NC(=O)/C(C)=C\\C=C\\[C@H](C)[C@H](C)[C@@H](C)[C@@H](O)[C@@H](C)[C@H](OC(C)=O)[C@@H]1C", "note": "[Compound 3A]", "values": [{"measurement": "Mycobacterium tuberculosis strain MIC90, RpoBS531L", "setting": "[1]", "result": 0.22, "unit": "µM"}, {"measurement": "Mycobacterium tuberculosis strain MIC90, RpoBS522L H37Rv", "setting": "[2]", "result": 0.31, "unit": "µM"}]}
{"compound": "CO[C@H]1/C=C/O[C@@]2(C)Oc3c(C)c(O)c4c(O)c(c(CNCCOCCOCCOCn5cc(CCn6cc(F)c(=O)[nH]c6=O)nn5)c(O)c4c3C2=O)NC(=O)/C(C)=C\\C=C\\[C@H](C)[C@H](C)[C@@H](C)[C@@H](O)[C@@H](C)[C@H](OC(C)=O)[C@@H]1C", "note": "[Compound 3B]", "values": [{"measurement": "Mycobacterium tuberculosis strain MIC90, RpoBS531L", "setting": "[1]", "result": 0.23, "unit": "µM"}, {"measurement": "Mycobacterium tuberculosis strain MIC90, RpoBS522L H37Rv", "setting": "[2]", "result": 0.32, "unit": "µM"}]}
{"compound": "CO[C@H]1/C=C/O[C@@]2(C)Oc3c(C)c(O)c4c(O)c(c(CNCCOCCOCCOCn5cc(CCCn6cc(F)c(=O)[nH]c6=O)nn5)c(O)c4c3C2=O)NC(=O)/C(C)=C\\C=C\\[C@H](C)[C@H](C)[C@@H](C)[C@@H](O)[C@@H](C)[C@H](OC(C)=O)[C@@H]1C", "note": "[Compound 3C]", "values": [{"measurement": "Mycobacterium tuberculosis strain MIC90, RpoBS531L", "setting": "[1]", "result": 0.21, "unit": "µM"}, {"measurement": "Mycobacterium tuberculosis strain MIC90, RpoBS522L H37Rv", "setting": "[2]", "result": 0.47, "unit": "µM"}]}
{"compound": "NNC(=O)c1ccncc1", "note": "[Isoniazid, reference compound]", "values": [{"measurement": "Mycobacterium tuberculosis strain MIC90, RpoBS531L", "setting": "[1]", "result": 0.55, "unit": "µM"}, {"measurement": "Mycobacterium tuberculosis strain MIC90, RpoBS522L H37Rv", "setting": "[2]", "result": 0.29, "unit": "µM"}]}
